How the values were obtained:
[1] = 101.33 kPa, Liquid, Vibrating tube method
[2] = xn = mol fraction of the nth substance listed; conditions: 100 kPa, Liquid, Vibrating tube method

NCCO [2-aminoethan-1-ol]
[1]
Conditions	mass density [kg/m3]
293.15 K	1016.47
298.15 K	1012.53
303.15 K	1008.47
308.15 K	1004.49
313.15 K	1000.5
318.15 K	996.39
323.15 K	992.41

NCCO [2-aminoethan-1-ol] + CC(C)(C)O
mass density [kg/m3], [2]
Conditions	x1 = 0.1188	x1 = 0.2328	x1 = 0.3421	x1 = 0.4472	x1 = 0.5482	x1 = 0.6454	x1 = 0.739	x1 = 0.8291	x1 = 0.9161	x1 = 1
298.15 K	801.37	821.17	842.86	865.97	887.94	912.32	938.36	962.65	988.97	1012.53
303.15 K	796.64	816.75	838.57	861.74	883.79	908.2	934.25	958.59	984.91	1008.47
308.15 K	791.93	812.34	834.31	857.55	879.69	904.13	930.2	954.6	980.92	1004.49
313.15 K	787.14	807.85	829.98	853.33	875.55	900.04	926.15	950.59	976.92	1000.5
318.15 K	782.16	803.17	825.49	848.95	871.27	895.8	921.97	946.45	972.81	996.39
323.15 K	777.17	798.52	821.03	844.64	867.05	891.65	917.86	942.41	968.8	992.41

NCCO [2-aminoethan-1-ol] + CC(C)CO
mass density [kg/m3], [2]
Conditions	x1 = 0.1188	x1 = 0.2328	x1 = 0.3421	x1 = 0.4472	x1 = 0.5482	x1 = 0.6454	x1 = 0.739	x1 = 0.8291	x1 = 0.9161	x1 = 1
293.15 K	819.76	840.36	859.83	880.16	901.41	923.2	946.54	967.04	992.18	1016.47
298.15 K	815.85	836.42	855.88	876.22	897.44	919.26	942.54	963.08	988.22	1012.53
303.15 K	811.84	832.41	851.83	872.2	893.38	915.22	938.44	959.04	984.12	1008.47
308.15 K	807.88	828.46	847.85	868.25	889.39	911.26	934.38	955.07	980.15	1004.49
313.15 K	803.87	824.49	843.85	864.27	885.38	907.27	930.38	951.07	976.15	1000.5
318.15 K	799.72	820.35	839.71	860.15	881.25	903.15	926.19	946.97	972.04	996.39
323.15 K	795.62	816.29	835.65	856.12	877.2	899.14	922.11	942.97	968.05	992.41

NCCO [2-aminoethan-1-ol] + CC(C)O
mass density [kg/m3], [2]
Conditions	x1 = 0.0986	x1 = 0.1974	x1 = 0.2966	x1 = 0.3961	x1 = 0.496	x1 = 0.5961	x1 = 0.6966	x1 = 0.7974	x1 = 0.8985	x1 = 1
293.15 K	804.43	824.39	844.97	868.88	891.61	915.69	939.56	965.29	989.95	1016.47
298.15 K	800.28	820.25	840.83	864.78	887.55	911.65	935.53	961.29	985.96	1012.53
303.15 K	795.98	815.98	836.58	860.58	883.37	907.48	931.4	957.17	981.86	1008.47
308.15 K	791.72	811.76	832.38	856.42	879.25	903.38	927.32	953.13	977.84	1004.49
313.15 K	787.39	807.48	828.13	852.23	875.1	899.25	923.23	949.07	973.81	1000.5
318.15 K	782.87	803.04	823.74	847.9	870.82	895	919	944.88	969.66	996.39
323.15 K	778.38	798.63	819.42	843.64	866.61	890.84	914.87	940.8	965.62	992.41

Source: the NIST ThermoML archive (doi:10.1016/j.jct.2019.01.025)
